“And” between values parts separate entries of the source, which are not always exact repeats. Identical values can stand only once. Like-named read-outs stand apart in the source and are kept apart here.
Assays:
hCB1 = hCB1 (Homo sapiens, UniProt P21554); assay: bioSensAll ebBRET signaling profiling, hCB1; assay type: cell-based; set-up: host or cells: HEK293SL cells, transient PEI transfection; details: for Gi1 hCB1 response: Gi1 biosensor; for Gi1 hCB1 / GoB hCB1: single replicate values, FigS6a; for EC50: read-out: EC50 [95% CI]; for Emax: normalized to CP-55,940
hCB1, sequence (P21554 whole entry): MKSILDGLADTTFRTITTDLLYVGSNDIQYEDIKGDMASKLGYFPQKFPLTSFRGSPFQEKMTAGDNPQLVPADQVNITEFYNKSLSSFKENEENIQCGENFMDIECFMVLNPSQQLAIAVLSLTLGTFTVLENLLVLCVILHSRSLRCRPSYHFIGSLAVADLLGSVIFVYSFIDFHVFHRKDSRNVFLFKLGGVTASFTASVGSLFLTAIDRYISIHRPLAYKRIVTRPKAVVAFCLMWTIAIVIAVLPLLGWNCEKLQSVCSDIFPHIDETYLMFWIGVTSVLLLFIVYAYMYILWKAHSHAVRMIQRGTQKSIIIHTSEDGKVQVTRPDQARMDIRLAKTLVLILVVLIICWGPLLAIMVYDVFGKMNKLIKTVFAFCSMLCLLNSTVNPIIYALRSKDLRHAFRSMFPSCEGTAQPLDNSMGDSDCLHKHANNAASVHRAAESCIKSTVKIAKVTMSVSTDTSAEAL

CB1 (rCB1) = CB1 (rCB1) (Rattus norvegicus, UniProt P20272); assay: Radioligand competition binding, [3H]-CP-55,940, rat brain membranes
CB1 (rCB1), sequence (P20272 whole entry): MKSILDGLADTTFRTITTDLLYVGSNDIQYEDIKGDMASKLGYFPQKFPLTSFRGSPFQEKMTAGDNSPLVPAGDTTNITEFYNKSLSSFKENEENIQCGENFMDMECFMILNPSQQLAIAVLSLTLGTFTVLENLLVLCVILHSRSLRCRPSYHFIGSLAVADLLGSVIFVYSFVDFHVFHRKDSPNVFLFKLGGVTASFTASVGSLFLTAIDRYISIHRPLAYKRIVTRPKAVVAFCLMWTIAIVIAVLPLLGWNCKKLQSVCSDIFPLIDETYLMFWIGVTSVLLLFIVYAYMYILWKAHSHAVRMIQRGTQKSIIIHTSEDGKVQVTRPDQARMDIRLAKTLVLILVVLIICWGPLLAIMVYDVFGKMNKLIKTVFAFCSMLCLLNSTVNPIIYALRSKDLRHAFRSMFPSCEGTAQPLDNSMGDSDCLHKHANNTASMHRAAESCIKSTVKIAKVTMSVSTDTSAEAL

Cc1cc(C(=O)NC(c2ccco2)c2ccco2)nn1-c1cccc(C(F)(F)F)c1 [‘1090]
Gi1 hCB1 response (hCB1; Log [Compound] (M) -4.22186): 110.038
Gi1 hCB1 response (hCB1; Log [Compound] (M) -4.63927): 112.164
Gi1 hCB1 response (hCB1; Log [Compound] (M) -5.05788): 98.6907
Gi1 hCB1 response (hCB1; Log [Compound] (M) -5.47381): 79.5321
Gi1 hCB1 response (hCB1; Log [Compound] (M) -5.89285): 73.4668
Gi1 hCB1 response (hCB1; Log [Compound] (M) -6.31878): 61.1346
Gi1 hCB1 response (hCB1; Log [Compound] (M) -6.72585): 69.6395
Gi1 hCB1 response (hCB1; Log [Compound] (M) -7.14267): 48.8248
Gi1 hCB1 response (hCB1; Log [Compound] (M) -7.55284): 35.6645
Gi1 hCB1 response (hCB1; Log [Compound] (M) -8): 6.211
Gi1 hCB1 response (hCB1; Log [Compound] (M) -8.22186): 13.1264
Gi1 hCB1 response (hCB1; Log [Compound] (M) -8.39794): -25.5487
Gi1 hCB1 response (hCB1; Log [Compound] (M) -8.68787): -2.72
Gi1 hCB1 response (hCB1; Log [Compound] (M) -9.15521): -19.4162
Gi1 hCB1 response (hCB1; Log [Compound] (M) -9.61989): 5.584
Gi1 hCB1 response (hCB1; Log [Compound] (M) -10.0969): -17.9838
Gi1 hCB1 response (hCB1; Log [Compound] (M) -10.5529): 0.2123
Gi1 hCB1 response (hCB1; Log [Compound] (M) -11.0177): -1.668
Gi1 hCB1 response (hCB1; Log [Compound] (M) -11.4949): -1.668
Gi1 hCB1 response (hCB1; Log [Compound] (M) -11.9208): -2.429
Gi1 hCB1 response (hCB1; Log [Compound] (M) -12.3979): -6.524
Gi1 hCB1 response (hCB1; Log [Compound] (M) -12.8861): -4.734
Gi1 hCB1 response (hCB1; Log [Compound] (M) -13, individual replicate values): -8.293 and -12.478
Gi1 hCB1 (hCB1; Log [Compound] (M) -4.22186): 93.2514
GoB hCB1 (hCB1; Log [Compound] (M) -4.22186): 92.9275
Gi1 hCB1 (hCB1; Log [Compound] (M) -4.63927): 80.9336
GoB hCB1 (hCB1; Log [Compound] (M) -4.63927): 98.7901
Gi1 hCB1 (hCB1; Log [Compound] (M) -5.05788): 80.7948
GoB hCB1 (hCB1; Log [Compound] (M) -5.05788): 84.6911
Gi1 hCB1 (hCB1; Log [Compound] (M) -5.47381): 75.954
GoB hCB1 (hCB1; Log [Compound] (M) -5.47381): 85.1767
Gi1 hCB1 (hCB1; Log [Compound] (M) -5.89285): 77.9273
GoB hCB1 (hCB1; Log [Compound] (M) -5.89285): 88.8273
Gi1 hCB1 (hCB1; Log [Compound] (M) -6.31878): 77.4032
GoB hCB1 (hCB1; Log [Compound] (M) -6.31878): 81.2923
Gi1 hCB1 (hCB1; Log [Compound] (M) -6.72585): 72.1615
GoB hCB1 (hCB1; Log [Compound] (M) -6.72585): 72.8221
Gi1 hCB1 (hCB1; Log [Compound] (M) -7.14267): 54.5866
GoB hCB1 (hCB1; Log [Compound] (M) -7.14267): 60.3417
Gi1 hCB1 (hCB1; Log [Compound] (M) -7.55284): 37.9676
GoB hCB1 (hCB1; Log [Compound] (M) -7.55284): 40.506
Gi1 hCB1 (hCB1; Log [Compound] (M) -8): 20.7318
GoB hCB1 (hCB1; Log [Compound] (M) -8): 24.4829
Gi1 hCB1 (hCB1; Log [Compound] (M) -8.22186): 14.9814
GoB hCB1 (hCB1; Log [Compound] (M) -8.22186): 13.6209
Gi1 hCB1 (hCB1; Log [Compound] (M) -8.39794): 11.266
GoB hCB1 (hCB1; Log [Compound] (M) -8.39794): 8.064
Gi1 hCB1 (hCB1; Log [Compound] (M) -8.68787): 5.932
GoB hCB1 (hCB1; Log [Compound] (M) -8.68787): 3.406
Gi1 hCB1 (hCB1; Log [Compound] (M) -9.15521): 2.879
GoB hCB1 (hCB1; Log [Compound] (M) -9.15521): 0.583
Gi1 hCB1 (hCB1; Log [Compound] (M) -9.61989): 1.785
GoB hCB1 (hCB1; Log [Compound] (M) -9.61989): -2.51
Gi1 hCB1 (hCB1; Log [Compound] (M) -10.0969): 3.897
GoB hCB1 (hCB1; Log [Compound] (M) -10.0969): -0.2442
Gi1 hCB1 (hCB1; Log [Compound] (M) -10.5529): 2.155
GoB hCB1 (hCB1; Log [Compound] (M) -10.5529): -0.55
Gi1 hCB1 (hCB1; Log [Compound] (M) -11.0177): 2.633
GoB hCB1 (hCB1; Log [Compound] (M) -11.0177): 0.2233
Gi1 hCB1 (hCB1; Log [Compound] (M) -11.4949): 3.6965
GoB hCB1 (hCB1; Log [Compound] (M) -11.4949): 0.565
Gi1 hCB1 (hCB1; Log [Compound] (M) -11.9208): 1.261
GoB hCB1 (hCB1; Log [Compound] (M) -11.9208): 2.507
Gi1 hCB1 (hCB1; Log [Compound] (M) -12.3979): 3.666
GoB hCB1 (hCB1; Log [Compound] (M) -12.3979): 1.59
Gi1 hCB1 (hCB1; Log [Compound] (M) -12.8861): 2.17
GoB hCB1 (hCB1; Log [Compound] (M) -12.8861): 4.557
Gi1 hCB1 (hCB1; Log [Compound] (M) -13): 1.415 and 2.093
GoB hCB1 (hCB1; Log [Compound] (M) -13): 4.719 and 2.903
pEC50 [95% CI] (hCB1; hCB1 Gi1): 7.5 [7.3 – 7.5]
pEC50 [95% CI] (hCB1; hCB1 GoB): 7.4 [7.3 – 7.5]
pEC50 [95% CI] (hCB1; hCB1 Gz): 6.9 [6.5 – 7.4]
EC50 (hCB1; hCB1 Gi1): 35.6 nM
EC50 (hCB1; hCB1 GoB): 37.3 nM
Emax (hCB1; read-out: Emax [95% CI], hCB1 Gi1): 81%
Emax (hCB1; read-out: Emax [95% CI], hCB1 GoB): 90%
Emax (hCB1; read-out: Emax [95% CI], hCB1 Gz): 115%
pKi [95% CI] (CB1 (rCB1); rCB1): 7.0 [6.7 – 7.4]
Ki (CB1 (rCB1); read-out: Ki [95% CI], rCB1, [3H]-CP-55,940): 90.8 nM
